This note sets out measurements from US12213970B2, “Pyridinyl sulfonamide derivatives, pharmaceutical compositions and uses thereof” (Boehringer Ingelheim International GmbH, priority 2018, dated 2025).

The structures appear in SMILES notation. Counter-ions that a name gives are not always drawn. Like-named read-outs stand apart in the source and are kept apart here.

The target of experiment [1] is T1, human AOC3 enzyme (recombinant CHO cells) (Homo sapiens, UniProt Q16853).
T1 construct: expressed in transfected cells; host or cells: CHO cells
T1 sequence (Q16853 1-763): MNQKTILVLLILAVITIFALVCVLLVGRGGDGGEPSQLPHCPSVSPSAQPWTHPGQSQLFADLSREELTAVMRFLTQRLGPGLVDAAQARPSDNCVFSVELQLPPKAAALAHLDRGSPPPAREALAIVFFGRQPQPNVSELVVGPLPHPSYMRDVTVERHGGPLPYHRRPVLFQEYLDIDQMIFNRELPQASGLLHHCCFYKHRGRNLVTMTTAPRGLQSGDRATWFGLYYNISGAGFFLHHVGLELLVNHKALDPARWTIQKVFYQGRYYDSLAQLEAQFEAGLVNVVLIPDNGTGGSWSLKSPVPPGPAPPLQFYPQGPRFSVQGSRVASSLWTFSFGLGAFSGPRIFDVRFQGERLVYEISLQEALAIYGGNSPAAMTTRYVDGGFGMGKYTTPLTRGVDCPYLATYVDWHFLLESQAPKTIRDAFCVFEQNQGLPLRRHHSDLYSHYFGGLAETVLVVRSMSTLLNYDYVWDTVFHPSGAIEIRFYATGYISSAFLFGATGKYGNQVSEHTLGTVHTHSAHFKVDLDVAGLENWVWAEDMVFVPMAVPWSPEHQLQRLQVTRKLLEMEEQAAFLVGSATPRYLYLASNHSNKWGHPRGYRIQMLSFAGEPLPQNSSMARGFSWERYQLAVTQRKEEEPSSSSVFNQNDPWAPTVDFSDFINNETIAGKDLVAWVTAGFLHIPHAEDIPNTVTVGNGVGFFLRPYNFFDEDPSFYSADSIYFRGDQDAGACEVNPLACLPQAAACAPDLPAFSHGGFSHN
In words: AOC3 biochemical assay (MAO-Glo), human enzyme. An excerpt:
The MAO-Glo™ Assay (commercially available from PROMEGA, #V1402) provides a sensitive method for the measurement of monoamine oxidase (MAO) activity (Valley, M. P. et al., 2006, Anal. Biochem. 359: 238-246) from a variety of tissues, biofluids or recombinant expressed or purified enzymes. As substrate a derivate of the beetle luciferin ((4S)-4,5-dihydro-2-(6-hydroxybenzothiazolyl)-4-thiazole-carboxylic acid) is used, which is oxidized at a primary amine moiety. After a spontaneous elimination and a catalyzed esterase reaction, the turnover of luciferin by the luciferase is recorded as a signal of AOC3 activity.
An aliquot of 3 μL of the compound dilution is added to a 384 well plate (Optiplate, PS, flat bottom, white, PERKIN ELMER, #6007290) with a final DMSO concentration of 6.6%. Recombinant CHO cells, overexpressing the human (1500 cells/well), mouse (1000 cells/well) or rat (500 cells/well) AOC3 enzyme are diluted in reaction buffer and added in a volume of 15 μL to the wells. After incubation for 20 minutes at 37° C., 2 μL of MAO substrate (dissolved in DMSO at 16 mM, adjusted to assay concentration in reaction buffer to a final assay concentration of 20 μM) is added and further incubated for 60 minutes at 37° C. The turnover of the substrate is determined by the addition of 20 μL of the detection-mix which was generated by the addition of reconstitution buffer with esterase (PROMEGA, #V1402) to the luciferin detection reagent (PROMEGA, #V1402). After an incubation period of 20 minutes, the luminescent signal is measured with Envision 2104 Multilabel Reader (PERKIN ELMER).

Experiment [2] deals with T2, AOC1 (Homo sapiens, UniProt P19801).
T2 construct: purchased R&D Systems 8297-AO-010
T2 sequence (P19801 20-751): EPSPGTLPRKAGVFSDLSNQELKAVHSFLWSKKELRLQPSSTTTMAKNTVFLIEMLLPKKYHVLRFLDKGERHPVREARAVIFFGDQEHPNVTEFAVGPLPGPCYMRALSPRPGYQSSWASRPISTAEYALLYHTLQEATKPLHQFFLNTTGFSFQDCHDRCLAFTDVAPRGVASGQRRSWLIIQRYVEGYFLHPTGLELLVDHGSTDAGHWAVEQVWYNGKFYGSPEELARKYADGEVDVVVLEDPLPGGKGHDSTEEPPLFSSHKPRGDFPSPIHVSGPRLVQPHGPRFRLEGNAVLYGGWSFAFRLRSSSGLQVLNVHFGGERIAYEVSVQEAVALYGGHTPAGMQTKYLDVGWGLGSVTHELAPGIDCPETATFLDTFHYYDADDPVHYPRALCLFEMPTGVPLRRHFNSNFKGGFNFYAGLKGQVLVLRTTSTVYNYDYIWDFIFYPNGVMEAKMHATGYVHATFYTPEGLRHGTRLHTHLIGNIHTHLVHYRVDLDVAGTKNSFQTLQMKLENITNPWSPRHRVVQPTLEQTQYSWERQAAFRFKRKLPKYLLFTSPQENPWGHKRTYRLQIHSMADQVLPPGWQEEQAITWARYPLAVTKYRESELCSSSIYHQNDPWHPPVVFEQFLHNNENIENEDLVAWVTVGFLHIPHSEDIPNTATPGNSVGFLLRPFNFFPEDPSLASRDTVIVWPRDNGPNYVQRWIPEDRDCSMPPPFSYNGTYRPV
In words: AOC1 biochemical assay (Amplex Red). On the procedure: The Amplex® Red Assay (available from Thermo Fisher Scientific) provides a sensitive method for the detection of H2O2 generated during enzymatic reactions like the amine oxidation catalyzed by AOC1. The assay reagent is a colorless substrate (N-acetyl-3,7-dihydroxyphenoxazine) that reacts in a 1:1 stoichiometry with hydrogen peroxide (H2O2) to produce the fluorescent dye resorufin (7-hydroxyphenoxazin-3-one, excitation/emission maxima=570/585 nm).
An aliquot of 3 μL of the compound dilution is added to a 384 well plate (Optiplate, PS, flat bottom F, black, PERKIN ELMER, #6007270) in a DMSO concentration of 6.6%.
An AOC1 enzyme aliquot (#8297-AO-010, R&D Systems) is thawed on ice, diluted in reaction buffer and added in a volume of 7 μL to the wells to give a final assay concentration of 1 ng/well. After incubation of inhibitor and enzyme for 30 minutes at 37° C., the enzymatic reaction is started with the addition of 10 μL of Amplex® Red reaction mix (final assay concentration: 100 mM sodiumphosphate, 120 μM Amplex® Red reagent (#A22177 Molecular Probes), 1.5 U/mL Horseradish Peroxidase (#P8375 Sigma-Aldrich), 200 μM putrescine (#P7505 Sigma-Alrdich), 0.05% Pluronic F-127 (#P3000MP Sigma-Aldrich), pH 7.4, 37° C.).
After an incubation for 30 minutes at 37° C. the turnover of the substrate is determined directly (or after the addition of an excess of an amine-oxidase inhibitor) with a fluorescence reader (Ex 540 nm/Em 590 nm) like Envision 2104 Multilabel Reader (PERKIN ELMER).

In the case of `COC(=O)[C@H]1[C@@H]2CN(S(=O)(=O)c3ccc(OC/C(=C\F)CN)nc3)C[C@@H]21` [Example 35, trans-3-[6-((Z)-2-Aminomethyl-3-fluoro-allyloxy)-pyridine-3-sulfonyl]-3-aza-bicyclo[3.1.0]hexane-6-carboxylic acid methyl ester trifluoroacetate], the IC50 in experiment [1] (read-out: AOC3 IC50) stood at 3 nM; in experiment [2] (read-out: AOC1 IC50), 1840 nM.
Consider `NC/C(=C/F)COc1ccc(S(=O)(=O)N2CC[C@H](O)C2)cn1` [Example 43, (S)-1-[6-(Z)-2-Aminomethyl-3-fluoro-allyloxy]-pyridine-3-sulfonyl]-pyrrolidin-3-ol trifluoroacetate], for which the IC50 turned out to be 10 nM in experiment [1] (read-out: AOC3 IC50) and 964 nM in experiment [2] (read-out: IC50 AOC1). For the same compound, the “factor less active on AOC1 than the comparison compound” value in experiment [2] (versus the Z isomer of example 6 of WO 2018/027892) was found to be 14.
For the compound `CN(C)C(=O)C1CN(S(=O)(=O)c2ccc(OC/C(=C\F)CN)nc2)C1` [Example 25], the IC50 worked out at 13 nM in experiment [1] (read-out: AOC3 IC50) and 1320 nM in experiment [2] (read-out: AOC1 IC50).
On the same counts, the results for `CC(=O)NCC1CCN(S(=O)(=O)c2ccc(OC/C(=C\F)CN)nc2)CC1` [Example 28] are 13 nM and 3740 nM.
`COCCNC(=O)CC1CCN(S(=O)(=O)c2ccc(OC/C(=C\F)CN)nc2)CC1` [Example 54]: the IC50 in experiment [1] (read-out: AOC3 IC50) worked out at 19 nM; in experiment [2] (read-out: AOC1 IC50) it was 10500 nM.
The matching figures for `CNC(=O)[C@@H]1CCCN1S(=O)(=O)c1ccc(OC/C(=C\F)CN)nc1` [Example 8]: 48 nM and 497 nM.
On the same counts, the results for `COC1CCN(S(=O)(=O)c2ccc(OC/C(=C\F)CN)nc2)CC1` [Example 40] are 4 nM and 781 nM.
As for `NC/C(=C/F)COc1ccc(S(=O)(=O)N2CCC(CC(N)=O)CC2)cn1` [Example 50], the values for the IC50 in experiment [1] (read-out: AOC3 IC50) and in experiment [2] (read-out: AOC1 IC50) were 8 nM and 5310 nM, respectively.
Take `NC/C(=C/F)COc1ccc(S(=O)(=O)N2CCC[C@H]2C(N)=O)cn1` [Example 13]: the IC50 in experiment [1] (read-out: AOC3 IC50) was determined as 43 nM; in experiment [2] (read-out: AOC1 IC50), 667 nM.
On the same counts, the results for `NC/C(=C/F)COc1ccc(S(=O)(=O)N2CC(C3CCN(C(=O)C4CC4)CC3)C2)cn1` [Example 26] are 9 nM and 911 nM.
The matching figures for `CNC(=O)C1CCN(S(=O)(=O)c2ccc(OC/C(=C\F)CN)nc2)CC1` [Example 37, trifluoroacetate]: 10 nM and 9880 nM.
Consider `CC1(C(=O)NC2CC2)CCN(S(=O)(=O)c2ccc(OC/C(=C\F)CN)nc2)CC1` [Example 56], for which the IC50 in experiment [1] (read-out: AOC3 IC50) was found to be 21 nM; in experiment [2] (read-out: AOC1 IC50) it was 11500 nM.
Regarding `CC1(C(N)=O)CCN(S(=O)(=O)c2ccc(OC/C(=C\F)CN)nc2)CC1` [Example 49], the IC50 stood at 8 nM in experiment [1] (read-out: AOC3 IC50) and 553 nM in experiment [2] (read-out: AOC1 IC50).
Turning to `CC1(C(=O)O)CCN(S(=O)(=O)c2ccc(OC/C(=C\F)CN)nc2)CC1` [Example 47], the IC50 was 548 nM in experiment [1] (read-out: AOC3 IC50) and more than 50000 nM in experiment [2] (read-out: AOC1 IC50).
On the same counts, the results for `COC1CN(S(=O)(=O)c2ccc(OC/C(=C\F)CN)nc2)C1` [Example 33] are 3 nM and 1140 nM.
On to `CN1CCN(C2CCN(S(=O)(=O)c3ccc(OC/C(=C\F)CN)nc3)CC2)C1=O` [Example 1, 1-{1-[6-((Z)-2-Aminomethyl-3-fluoro-allyloxy)-pyridine-3-sulfonyl]-piperidine-4-yl}-3-methyl-imidazolidin-2-one trifluoroacetate], for which the IC50 in experiment [1] (read-out: AOC3 IC50) came to 7 nM; in experiment [2] (read-out: AOC1 IC50) it was 15300 nM.
On the same counts, the results for `CC(F)(F)CNC(=O)CC1CCN(S(=O)(=O)c2ccc(OC/C(=C\F)CN)nc2)CC1` [Example 51] are 12 nM and 10300 nM.
On the same counts, the results for `CNC(=O)[C@@H]1[C@@H]2CN(S(=O)(=O)c3ccc(OC/C(=C\F)CN)nc3)C[C@@H]21` [Example 5] are 27 nM and 1220 nM.
Turning to `NC/C(=C/F)COc1ccc(S(=O)(=O)N2C[C@@H]3[C@H](C2)[C@H]3C(=O)O)cn1` [Example 45, trans-3-[6-((Z)-2-Aminomethyl-3-fluoro-allyloxy)-pyridine-3-sulfonyl]-3-aza-bicyclo[3.1.0]hexane-6-carboxylic acid trifluoroacetate], the results for the IC50 in experiment [1] (read-out: AOC3 IC50) and in experiment [2] (read-out: AOC1 IC50) were 67 nM and 37600 nM, respectively.
Consider `CC1(C(=O)NCCF)CCN(S(=O)(=O)c2ccc(OC/C(=C\F)CN)nc2)CC1` [Example 53], for which the IC50 in experiment [1] (read-out: AOC3 IC50) came out at 17 nM; in experiment [2] (read-out: AOC1 IC50), 14600 nM.
With `NC/C(=C/F)COc1ccc(S(=O)(=O)N2CCC(CC(=O)NCCO)CC2)cn1` [Example 52], the IC50 turned out to be 17 nM in experiment [1] (read-out: AOC3 IC50) and 15100 nM in experiment [2] (read-out: AOC1 IC50).
With `CC(C)(O)CNC(=O)[C@H]1CCN(S(=O)(=O)c2ccc(OC/C(=C\F)CN)nc2)C1` [Example 2], the IC50 in experiment [1] (read-out: AOC3 IC50) worked out at 40 nM; in experiment [2] (read-out: AOC1 IC50), 8140 nM.
Consider `COC(=O)C1(C)CCN(S(=O)(=O)c2ccc(OC/C(=C\F)CN)nc2)CC1` [Example 36], for which the IC50 worked out at 4 nM in experiment [1] (read-out: AOC3 IC50) and 1380 nM in experiment [2] (read-out: AOC1 IC50).
The matching figures for `NC/C(=C/F)COc1ccc(S(=O)(=O)N2CCC(C(=O)N3CCOCC3)CC2)cn1` [Example 3]: 88 nM and 16400 nM.
`COC(=O)CC1CCN(S(=O)(=O)c2ccc(OC/C(=C\F)CN)nc2)CC1` [Example 32]: the IC50 amounted to 4 nM in experiment [1] (read-out: AOC3 IC50) and 5450 nM in experiment [2] (read-out: AOC1 IC50).
`NC/C(=C/F)COc1cnc(N2CCC(O)CC2)nc1` [reference compound]: the IC50 in experiment [1] (comparison table, read-out: IC50 AOC3) amounted to 4 nM; in experiment [2] (comparison table, read-out: IC50 AOC1) it was 66 nM.

A word on the IC50: it is the concentration at which inhibition is half-maximal.
